This data set in a line: activity coefficient (dimensionless); of the first substance listed, at infinite dilution; xn = mol fraction of the nth substance listed. To be noted: Liquid, Chromatography, x1 = 0.

For 43 compounds, activity coefficient results are on record in the NIST ThermoML archive (doi:10.1021/je700297c).

The structures appear in SMILES notation. ± gives the expanded uncertainty stated by the source.

With `CCCCCCCC` [octane] + CCCCCCCC[n+]1ccn(C)c1.F[B-](F)(F)F, the activity coefficient by setting is: (298 K) 16.1 ± 1.1; (323 K) 11 ± 0.8.
Take `c1ccsc1` [thiophene] + CCCCCCCCCCCCCCCCCC(=O)[O-].CCCCn1cc[n+](C)c1: the activity coefficient (323 K) came to 0.8 ± 0.1 and the activity coefficient (333 K) came to 0.8 ± 0.1.
With `c1ccccc1` [benzene] + CCCCCCCC[n+]1ccn(C)c1.F[B-](F)(F)F, the activity coefficient is, setting by setting: (298 K) 0.7 ± 0.1; (323 K) 0.6 ± 0.1.
As for `c1ccsc1` [thiophene] + CCCCCCCCCCCCCCCC(=O)[O-].CCCCn1cc[n+](C)c1, the activity coefficient (333 K) came out at 0.9 ± 0.1.
Turning to `CO` [methanol] + CCCCCCCC[n+]1ccn(C)c1.F[B-](F)(F)F, the activity coefficient by setting is: (298 K) 0.3 ± 0.1; (323 K) 0.3 ± 0.1.
Turning to `CCCCCC` [hexane] + CCCC[n+]1ccn(C)c1.O=S(=O)([N-]S(=O)(=O)C(F)(F)F)C(F)(F)F, the activity coefficient (323 K) turned out to be 12.8 ± 0.9.
As to `c1ccccc1` [benzene] + C[n+]1ccn(CCCC#N)c1.N#CN=C=[N-], the activity coefficient by setting is: (303 K) 2.3 ± 0.2; (323 K) 2.2 ± 0.2.
Turning to `C=CCCCCCC` [oct-1-ene] + C[n+]1ccn(CCCC#N)c1.N#CN=C=[N-], the activity coefficient reads like this: (303 K) 142 ± 9.8; (323 K) 136 ± 9.3.
In the case of `CCCCCCC` [heptane] + CCCCCCCCCCCCCCCC(=O)[O-].CCCCn1cc[n+](C)c1, under “333 K”, the activity coefficient is 1.4 ± 0.1.
On to `C1CCOC1` [tetrahydrofuran] + CCCCCCCC[n+]1ccn(C)c1.F[B-](F)(F)F, for which the activity coefficient (298 K) stood at 0.7 ± 0.1 and the activity coefficient (323 K) turned out to be 0.6 ± 0.1.
For the compound `C1CCOC1` [tetrahydrofuran] + C[n+]1ccn(CCCC#N)c1.O=S(=O)([N-]S(=O)(=O)C(F)(F)F)C(F)(F)F, the activity coefficient was 1.3 ± 0.1 (303 K) and 1.2 ± 0.1 (323 K).
With `CCCCCC` [hexane] + CCCCCCCCCCCCCCCC(=O)[O-].CCCCn1cc[n+](C)c1, the activity coefficient (333 K) was 1.3 ± 0.1.
With `c1ccsc1` [thiophene] + C[n+]1ccn(CCCC#N)c1.N#CN=C=[N-], the activity coefficient reads like this: (303 K) 1.7 ± 0.1; (323 K) 1.6 ± 0.1.
As for `CCO` [ethanol] + CCCC[n+]1ccn(C)c1.O=S(=O)([N-]S(=O)(=O)C(F)(F)F)C(F)(F)F, the activity coefficient (323 K) was found to be 1.2 ± 0.1.
Turning to `CCCCCC` [hexane] + CCCCCCCCCCCCCCCCCC(=O)[O-].CCCCn1cc[n+](C)c1, the activity coefficient is, setting by setting: (323 K) 1.7 ± 0.1; (333 K) 1.4 ± 0.1.
With `CCOC(C)=O` [ethyl acetate] + C[n+]1ccn(CCCC#N)c1.O=S(=O)([N-]S(=O)(=O)C(F)(F)F)C(F)(F)F, the activity coefficient by setting is: (303 K) 2.1 ± 0.2; (323 K) 2.1 ± 0.2.
Regarding `C=CCCCC` [hex-1-ene] + CCCCCCCCCCCCCCCCCC(=O)[O-].CCCCn1cc[n+](C)c1, the activity coefficient was 1.4 ± 0.1 (323 K) and 1.2 ± 0.1 (333 K).
With `CO` [methanol] + CCCCCCCCCCCCCCCC(=O)[O-].CCCCn1cc[n+](C)c1, the activity coefficient (333 K) came out at 0.3 ± 0.1.
Take `CC1CCCCC1` [methylcyclohexane] + CCCCn1cc[n+](C)c1.F[B-](F)(F)F: the activity coefficient by setting is: (298 K) 43.7 ± 3; (323 K) 35.5 ± 2.4.
On to `CCCCCC` [hexane] + CCCCn1cc[n+](C)c1.F[B-](F)(F)F, for which the activity coefficient was found to be 65.9 ± 4.5 (298 K) and 50.6 ± 3.5 (323 K).
Consider `c1ccccc1` [benzene] + CCCC[n+]1ccn(C)c1.O=S(=O)([N-]S(=O)(=O)C(F)(F)F)C(F)(F)F, for which the activity coefficient (323 K) came to 0.8 ± 0.1.
Take `CCCCCCC` [heptane] + CCCCCCCC[n+]1ccn(C)c1.F[B-](F)(F)F: the activity coefficient by setting is: (298 K) 11 ± 0.8; (323 K) 8.4 ± 0.6.
For `Cc1ccccc1` [toluene] + CCCCCCCCCCCCCCCC(=O)[O-].CCCCn1cc[n+](C)c1, the activity coefficient (333 K) came out at 0.8 ± 0.1.
For the compound `C=CCCCC` [hex-1-ene] + CCCC[n+]1ccn(C)c1.O=S(=O)([N-]S(=O)(=O)C(F)(F)F)C(F)(F)F, the activity coefficient (323 K) came to 6 ± 0.4.
On to `C1CCCCC1` [cyclohexane] + C[n+]1ccn(CCCC#N)c1.O=S(=O)([N-]S(=O)(=O)C(F)(F)F)C(F)(F)F, for which the activity coefficient turned out to be 55.4 ± 3.8 (303 K) and 45.9 ± 3.1 (323 K).
Consider `CCOC(C)=O` [ethyl acetate] + CCCCCCCC[n+]1ccn(C)c1.F[B-](F)(F)F, for which the activity coefficient (298 K) amounted to 0.9 ± 0.1 and the activity coefficient (323 K) is 0.8 ± 0.1.
Turning to `c1ccccc1` [benzene] + C[n+]1ccn(CCCC#N)c1.O=S(=O)([N-]S(=O)(=O)C(F)(F)F)C(F)(F)F, the activity coefficient is, setting by setting: (303 K) 1.8 ± 0.1; (323 K) 1.7 ± 0.1.
In the case of `Cc1ccccc1` [toluene] + C[n+]1ccn(CCCC#N)c1.N#CN=C=[N-], the activity coefficient was found to be 4.3 ± 0.3 (303 K) and 4 ± 0.3 (323 K).
Turning to `CCCCCCC` [heptane] + CCCCCCCCCCCCCCCCCC(=O)[O-].CCCCn1cc[n+](C)c1, the activity coefficient was determined as 1.8 ± 0.1 (323 K) and 1.5 ± 0.1 (333 K).
For `c1ccccc1` [benzene] + CCCCn1cc[n+](C)c1.F[B-](F)(F)F, the activity coefficient by setting is: (298 K) 1.5 ± 0.1; (323 K) 1.5 ± 0.1.
`CC1CCCCC1` [methylcyclohexane] + C[n+]1ccn(CCCC#N)c1.N#CN=C=[N-]: the activity coefficient is 118 ± 8.1 (303 K) and 84.9 ± 5.8 (323 K).
On to `C1CCOC1` [tetrahydrofuran] + CCCCCCCCCCCCCCCC(=O)[O-].CCCCn1cc[n+](C)c1, for which the activity coefficient (333 K) was 0.6 ± 0.1.
For the compound `CCO` [ethanol] + CCCCCCCC[n+]1ccn(C)c1.F[B-](F)(F)F, the activity coefficient is, setting by setting: (298 K) 0.5 ± 0.1; (323 K) 0.4 ± 0.1.
Regarding `CCCCCCCC` [octane] + CCCC[n+]1ccn(C)c1.O=S(=O)([N-]S(=O)(=O)C(F)(F)F)C(F)(F)F, the activity coefficient (323 K) was determined as 23.4 ± 1.6.
`CCCCCCC` [heptane] + CCCCn1cc[n+](C)c1.F[B-](F)(F)F: the activity coefficient reads like this: (298 K) 83.5 ± 5.7; (323 K) 70.3 ± 4.8.
In the case of `CCCCCCC` [heptane] + CCCC[n+]1ccn(C)c1.O=S(=O)([N-]S(=O)(=O)C(F)(F)F)C(F)(F)F, the activity coefficient (323 K) is 15.5 ± 1.1.
As to `CO` [methanol] + CCCCn1cc[n+](C)c1.F[B-](F)(F)F, the activity coefficient turned out to be 0.8 ± 0.1 (298 K) and 0.7 ± 0.1 (323 K).
As for `C1CCCCC1` [cyclohexane] + CCCCn1cc[n+](C)c1.F[B-](F)(F)F, the activity coefficient (298 K) turned out to be 30.7 ± 2.1 and the activity coefficient (323 K) was 24.7 ± 1.7.
For the compound `C=CCCCCCC` [oct-1-ene] + CCCCCCCCCCCCCCCCCC(=O)[O-].CCCCn1cc[n+](C)c1, the activity coefficient turned out to be 1.7 ± 0.1 (323 K) and 1.4 ± 0.1 (333 K).
In the case of `O` [water] + CCCC[n+]1ccn(C)c1.O=S(=O)([N-]S(=O)(=O)C(F)(F)F)C(F)(F)F, the activity coefficient (323 K) amounted to 2.6 ± 0.2.
Turning to `C1CCOC1` [tetrahydrofuran] + CCCCn1cc[n+](C)c1.F[B-](F)(F)F, the activity coefficient by setting is: (298 K) 1.4 ± 0.1; (323 K) 1.4 ± 0.1.
Regarding `C=CCCCCCC` [oct-1-ene] + CCCCCCCC[n+]1ccn(C)c1.F[B-](F)(F)F, the activity coefficient amounted to 7.8 ± 0.5 (298 K) and 6.6 ± 0.5 (323 K).
As to `CCCCCCCC` [octane] + C[n+]1ccn(CCCC#N)c1.O=S(=O)([N-]S(=O)(=O)C(F)(F)F)C(F)(F)F, the activity coefficient by setting is: (303 K) 191 ± 13; (323 K) 159 ± 11.
